In PubChem BioAssay (NCI):
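Protocol summary: plate cells (96-well), add compound at 5 concentrations, incubate 48 h, interpolate endpoints linearly. TGI: concentration producing complete growth inhibition.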

Columns and labels:
Experiment in all cases: inhibition of tumour cell growth, NCI panel, 48 h
UACC-257 melanoma = test system: UACC-257 melanoma
NCI-H522 lung = test system: NCI-H522 lung
NCI-H23 lung = test system: NCI-H23 lung
K-562 leukemia = test system: K-562 leukemia
HOP-62 NSCLC = test system: HOP-62 NSCLC
SN12C renal = test system: SN12C renal
LXFL 529 NSCLC = test system: LXFL 529 NSCLC
OVCAR-4 ovarian = test system: OVCAR-4 ovarian
SF-268 CNS = test system: SF-268 CNS
SK-MEL-28 melanoma = test system: SK-MEL-28 melanoma
MOLT-4 leukemia = test system: MOLT-4 leukemia
HT29 colon = test system: HT29 colon
M19-MEL melanoma = test system: M19-MEL melanoma
UO-31 renal = test system: UO-31 renal
IGROV1 ovarian = test system: IGROV1 ovarian
A549 NSCLC = test system: A549 NSCLC
LOX IMVI melanoma = test system: LOX IMVI melanoma
DLD-1 colon = test system: DLD-1 colon
RXF 393 renal = test system: RXF 393 renal
SK-OV-3 ovarian = test system: SK-OV-3 ovarian
SK-MEL-2 melanoma = test system: SK-MEL-2 melanoma
HOP-92 NSCLC = test system: HOP-92 NSCLC
UACC-62 melanoma = test system: UACC-62 melanoma
EKVX NSCLC = test system: EKVX NSCLC
SK-MEL-5 melanoma = test system: SK-MEL-5 melanoma
786-0 renal = test system: 786-0 renal
SNB-19 CNS = test system: SNB-19 CNS
HL-60(TB) leukemia = test system: HL-60(TB) leukemia
KM20L2 colon = test system: KM20L2 colon
OVCAR-5 ovarian = test system: OVCAR-5 ovarian
SNB-78 CNS = test system: SNB-78 CNS
SF-295 CNS = test system: SF-295 CNS
SR leukemia = test system: SR leukemia
TK-10 renal = test system: TK-10 renal
OVCAR-8 ovarian = test system: OVCAR-8 ovarian
SF-539 CNS = test system: SF-539 CNS
A498 renal = test system: A498 renal
KM12 colon = test system: KM12 colon
NCI-H460 lung = test system: NCI-H460 lung
ACHN renal = test system: ACHN renal
DMS 273 small cell lung = test system: DMS 273 small cell lung
RXF-631 renal = test system: RXF-631 renal
U251 CNS = test system: U251 CNS
DMS 114 small cell lung = test system: DMS 114 small cell lung
NCI-H226 lung = test system: NCI-H226 lung
CCRF-CEM leukemia = test system: CCRF-CEM leukemia
CAKI-1 renal = test system: CAKI-1 renal
SW-620 colon = test system: SW-620 colon
COLO 205 colon = test system: COLO 205 colon
MALME-3M melanoma = test system: MALME-3M melanoma
SNB-75 CNS = test system: SNB-75 CNS
HCT-15 colon = test system: HCT-15 colon
OVCAR-3 ovarian = test system: OVCAR-3 ovarian
HOP-18 NSCLC = test system: HOP-18 NSCLC
HCT-116 colon = test system: HCT-116 colon
HCC-2998 colon = test system: HCC-2998 colon
XF 498 CNS = test system: XF 498 CNS
RPMI-8226 leukemia = test system: RPMI-8226 leukemia
M14 melanoma = test system: M14 melanoma

Measured: TGI

Cn1c(=O)c2c(nc3n2CCC(=O)N3)n(C)c1=O
not listed: SNB-75 CNS | HCT-15 colon | OVCAR-3 ovarian | HOP-18 NSCLC | HCT-116 colon | HCC-2998 colon | XF 498 CNS | RPMI-8226 leukemia | M14 melanoma
> 100 µM: all other assays above

COC(=O)c1ccc(OCc2ccc3oc(=O)c(-c4ccccc4)nc3c2)cc1
38.4 µM: DLD-1 colon
66.5 µM: 786-0 renal
72.7 µM: CCRF-CEM leukemia
not listed: LXFL 529 NSCLC | IGROV1 ovarian | RXF 393 renal | SK-OV-3 ovarian | HOP-92 NSCLC | UACC-62 melanoma | KM20L2 colon | A498 renal | RXF-631 renal
> 100 µM: all other assays above

c1c[nH]c(Cc2ncc(Cc3cnc[nH]3)[nH]2)n1
67.8 µM: DMS 273 small cell lung
46.3 µM: NCI-H226 lung
59.6 µM: OVCAR-5 ovarian
84.4 µM: SNB-19 CNS
55.8 µM: M19-MEL melanoma
21.5 µM: HL-60(TB) leukemia
58.6 µM: DMS 114 small cell lung
96.2 µM: LOX IMVI melanoma | NCI-H460 lung
51.5 µM: ACHN renal
59.5 µM: UACC-62 melanoma
65.8 µM: 786-0 renal
59.1 µM: SK-MEL-5 melanoma
86 µM: A498 renal
36.7 µM: M14 melanoma
86.2 µM: SK-OV-3 ovarian
98.6 µM: HOP-62 NSCLC
58.7 µM: CCRF-CEM leukemia
85 µM: IGROV1 ovarian
not listed: UACC-257 melanoma | UO-31 renal | RXF 393 renal | SNB-78 CNS | SR leukemia | RXF-631 renal
> 100 µM: all other assays above
